According to PubChem BioAssay AID248 (DTP/NCI, 2004):
Several values for one entry are separate records, joined by “and”; a condition that tells them apart may be missing. Equal entries are not always repeated. Inconclusive results and toxic doses are left out.

Test system: L1210 leukemia ip in BDF1 mice, survival T/C
Assay: NCI In Vivo Anticancer Drug Screen. Data for tumor model L1210 Leukemia (intraperitoneal) in B6D2F1 (BDF1) mice
Settings: endpoint: mean survival time, higher = longer survival
Method in brief: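 In this screen, tumor-bearing mice given compound are compared to those given vehicle, and their survival values are reported as a treated-to-control quotient.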

[1] = dose: 50.0 mg/kg/injection, schedule: Q01DX001 (ip), vehicle: saline
[2] = dose: 100.0 mg/kg/injection, schedule: Q01DX001 (ip), vehicle: saline
[3] = dose: 100.0 mg/kg/injection, schedule: Q04DX003 (ip), vehicle: saline with Tween-80
[4] = dose: 200.0 mg/kg/injection, schedule: Q04DX003 (ip), vehicle: saline with Tween-80
[5] = dose: 400.0 mg/kg/injection, schedule: Q04DX003 (ip), vehicle: saline with Tween-80
[6] = dose: 200.0 mg/kg/injection, schedule: Q01DX001 (ip), vehicle: saline
[7] = dose: 400.0 mg/kg/injection, schedule: Q01DX001 (ip), vehicle: saline
[8] = dose: 100.0 mg/kg/injection, schedule: Q04DX003 (ip), vehicle: Klucel (hydroxypropylcellulose) (HPC)
[9] = dose: 100.0 mg/kg/injection, schedule: Q01DX009 (ip), vehicle: saline with Tween-80
[10] = dose: 100.0 mg/kg/injection, schedule: Q04DX002 (ip), vehicle: saline with Tween-80
[11] = dose: 25.0 mg/kg/injection, schedule: Q04DX002 (ip), vehicle: saline with Tween-80
[12] = dose: 50.0 mg/kg/injection, schedule: Q04DX002 (ip), vehicle: saline with Tween-80

Compound: COc1cc(NS(C)(=O)=O)ccc1Nc1c2cccc(C)c2nc2c(C)cccc12
- T/C (dose: 6.25 mg/kg/injection, schedule: Q01DX009 (ip), vehicle: saline): 117 % of control
- T/C (dose: 6.25 mg/kg/injection, schedule: Q01DX009 (sc), vehicle: Klucel (hydroxypropylcellulose) (HPC)): 103 % of control
- T/C (dose: 12.5 mg/kg/injection, schedule: Q01DX009 (ip), vehicle: water): 170 % of control
- T/C (dose: 12.5 mg/kg/injection, schedule: Q01DX009 (sc), vehicle: Klucel (hydroxypropylcellulose) (HPC)): 104 % of control
- T/C (dose: 25.0 mg/kg/injection, schedule: Q01DX009 (ip), vehicle: saline): 175 % of control
- T/C (dose: 25.0 mg/kg/injection, schedule: Q01DX009 (ip), vehicle: water): 201 % of control
- T/C (dose: 25.0 mg/kg/injection, schedule: Q01DX009 (sc), vehicle: Klucel (hydroxypropylcellulose) (HPC)): 112 % of control
- T/C [1]: 115 % of control
- T/C (dose: 50.0 mg/kg/injection, schedule: Q01DX001 (ip), vehicle: water): 167 % of control
- T/C (dose: 50.0 mg/kg/injection, schedule: Q01DX009 (ip), vehicle: saline): 166 % of control
- T/C (dose: 50.0 mg/kg/injection, schedule: Q01DX009 (sc), vehicle: Klucel (hydroxypropylcellulose) (HPC)): 111 % of control
- T/C [2]: 115 % of control
- T/C (dose: 100.0 mg/kg/injection, schedule: Q01DX001 (ip), vehicle: water): 213 % of control
- T/C (dose: 100.0 mg/kg/injection, schedule: Q01DX009 (ip), vehicle: water): 107 % of control
- T/C (dose: 200.0 mg/kg/injection, schedule: Q01DX001 (ip), vehicle: water): 224 % of control
- T/C (dose: 400.0 mg/kg/injection, schedule: Q01DX001 (ip), vehicle: water): 102 % of control

Compound: O=Cc1ccc(OCCBr)cc1
- T/C [3]: 98 % of control
- T/C [4]: 97 % of control
- T/C [5]: 103 % of control

Compound: CSc1ccc(OC(C)=O)cc1C
- T/C [2]: 106 % of control
- T/C [6]: 98 % of control
- T/C [7]: 96 % of control

Compound: CC1([N+](=O)[O-])COP(=O)(NC2CCCC2)OC1 (stereo not drawn)
- T/C [1]: 106 % of control
- T/C [2]: 108 % of control
- T/C [6]: 102 % of control

Compound: CC(=O)CC(=O)Nc1cc(C(F)(F)F)ccc1Cl
- T/C [2]: 97 % of control
- T/C [6]: 101 % of control
- T/C [7]: 101 % of control

Compound: CN(C)c1ccc(/C=C/C=C/C(=O)c2ccccc2)cc1
- T/C [8]: 88 % of control
- T/C (dose: 200.0 mg/kg/injection, schedule: Q04DX003 (ip), vehicle: Klucel (hydroxypropylcellulose) (HPC)): 93 % of control
- T/C (dose: 400.0 mg/kg/injection, schedule: Q04DX003 (ip), vehicle: Klucel (hydroxypropylcellulose) (HPC)): 93 % of control

Compound: CCCCCCCCCCCCCCOc1ccc(F)cc1F
- T/C (dose: 100.0 mg/kg/injection, schedule: Q04DX002 (ip), vehicle: Klucel (hydroxypropylcellulose) (HPC)): 111 % of control
- T/C (dose: 200.0 mg/kg/injection, schedule: Q04DX002 (ip), vehicle: Klucel (hydroxypropylcellulose) (HPC)): 107 % of control
- T/C (dose: 400.0 mg/kg/injection, schedule: Q04DX002 (ip), vehicle: Klucel (hydroxypropylcellulose) (HPC)): 96 % of control

Compound: CCCCCCCCCCCCCCCCC(C(=O)O)C(O)(CC(=O)O)C(=O)O (stereo not drawn)
- T/C (dose: 19.0 mg/kg/injection, schedule: Q01DX Z (ip), vehicle: carboxymethylcellulose (CMC)): 92 % of control
- T/C (dose: 37.5 mg/kg/injection, schedule: Q01DX Z (ip), vehicle: carboxymethylcellulose (CMC)): 92 % of control
- T/C (dose: 75.0 mg/kg/injection, schedule: Q01DX Z (ip), vehicle: carboxymethylcellulose (CMC)): 86 % of control and 87 % of control
- T/C (dose: 150.0 mg/kg/injection, schedule: Q01DX Z (ip), vehicle: carboxymethylcellulose (CMC)): 88 % of control

Compound: CCOC(=O)N1Cc2cc3cc(OC)ccc3nc2C1
- T/C (dose: 50.0 mg/kg/injection, schedule: Q01DX009 (ip), vehicle: acetone): 98 % of control
- T/C (dose: 100.0 mg/kg/injection, schedule: Q01DX009 (ip), vehicle: acetone): 95 % of control
- T/C (dose: 100.0 mg/kg/injection, schedule: Q04DX003 (ip), vehicle: saline): 94 % of control
- T/C (dose: 200.0 mg/kg/injection, schedule: Q01DX009 (ip), vehicle: acetone): 95 % of control
- T/C (dose: 200.0 mg/kg/injection, schedule: Q04DX003 (ip), vehicle: saline): 89 % of control
- T/C (dose: 400.0 mg/kg/injection, schedule: Q04DX003 (ip), vehicle: saline): 105 % of control

Compound: N#CC(OS(=O)(=O)c1ccccc1)c1ccccc1 (stereo not drawn)
- T/C (dose: 50.0 mg/kg/injection, schedule: Q01DX001 (ip), vehicle: other): 89 % of control
- T/C (dose: 100.0 mg/kg/injection, schedule: Q01DX001 (ip), vehicle: other): 97 % of control
- T/C (dose: 200.0 mg/kg/injection, schedule: Q01DX001 (ip), vehicle: other): 105 % of control

Compound: COc1cc([N+](=O)[O-])ccc1NC(=O)N(C)C1CCCCC1
- T/C (dose: 100.0 mg/kg/injection, schedule: Q01DX001 (ip), vehicle: saline with Tween-80): 103 % of control
- T/C [9]: 98 % of control and 91 % of control
- T/C [10]: 99 % of control and 105 % of control
- T/C (dose: 200.0 mg/kg/injection, schedule: Q01DX001 (ip), vehicle: saline with Tween-80): 100 % of control
- T/C (dose: 200.0 mg/kg/injection, schedule: Q01DX009 (ip), vehicle: saline with Tween-80): 92 % of control and 96 % of control
- T/C (dose: 200.0 mg/kg/injection, schedule: Q04DX002 (ip), vehicle: saline with Tween-80): 94 % of control and 86 % of control
- T/C (dose: 400.0 mg/kg/injection, schedule: Q01DX001 (ip), vehicle: saline with Tween-80): 94 % of control
- T/C (dose: 400.0 mg/kg/injection, schedule: Q01DX009 (ip), vehicle: saline with Tween-80): 94 % of control and 98 % of control
- T/C (dose: 400.0 mg/kg/injection, schedule: Q04DX002 (ip), vehicle: saline with Tween-80): 94 % of control and 89 % of control

Compound: CCCCC(/C=C/c1ccc2ccccc2n1)CC (stereo not drawn)
- T/C [1]: 103 % of control
- T/C [2]: 113 % of control

Compound: COc1ccc([N+](=O)[O-])cc1NC(=O)Nc1cccc(O)c1
- T/C (dose: 50.0 mg/kg/injection, schedule: Q01DX009 (ip), vehicle: Klucel (hydroxypropylcellulose) (HPC)): 90 % of control
- T/C (dose: 100.0 mg/kg/injection, schedule: Q01DX009 (ip), vehicle: Klucel (hydroxypropylcellulose) (HPC)): 90 % of control
- T/C (dose: 200.0 mg/kg/injection, schedule: Q01DX009 (ip), vehicle: Klucel (hydroxypropylcellulose) (HPC)): 90 % of control

Compound: CN1CCN(C(=O)c2ccc(Cl)c(Cl)c2)CC1
- T/C (dose: 12.5 mg/kg/injection, schedule: Q01DX009 (ip), vehicle: saline with Tween-80): 117 % of control
- T/C (dose: 12.5 mg/kg/injection, schedule: Q04DX003 (ip), vehicle: saline): 102 % of control
- T/C (dose: 25.0 mg/kg/injection, schedule: Q01DX009 (ip), vehicle: saline with Tween-80): 114 % of control
- T/C (dose: 25.0 mg/kg/injection, schedule: Q04DX003 (ip), vehicle: saline): 102 % of control
- T/C (dose: 50.0 mg/kg/injection, schedule: Q01DX009 (ip), vehicle: saline with Tween-80): 102 % of control and 115 % of control
- T/C (dose: 50.0 mg/kg/injection, schedule: Q04DX003 (ip), vehicle: saline): 108 % of control
- T/C (dose: 75.0 mg/kg/injection, schedule: Q01DX009 (ip), vehicle: saline with Tween-80): 115 % of control
- T/C [9]: 95 % of control

Compound: CC(C)C(C=NCC(CCN1CCOCC1)(c1ccc2ccccc2c1)C(C)C)(CCN1CCOCC1)c1ccc2ccccc2c1 (stereo not drawn)
- T/C [11]: 92 % of control
- T/C [12]: 98 % of control
- T/C [10]: 92 % of control

Compound: CCCCC(C=O)(CCN1CCCC1)c1cccc2ccccc12 (stereo not drawn)
- T/C [11]: 88 % of control
- T/C [12]: 100 % of control
- T/C [10]: 103 % of control

Compound: CN1CCN(C(=O)c2ccccc2C(=O)O)CC1
- T/C [2]: 101 % of control
- T/C [6]: 96 % of control

Compound: CC1(C)OC(=O)C(C#N)C1c1ccc(Cl)cc1 (stereo not drawn)
- T/C [2]: 101 % of control
- T/C [6]: 95 % of control
- T/C [7]: 95 % of control

Compound: CC[Si](CC)(c1ccccc1)N1CC1
- T/C (dose: 25.0 mg/kg/injection, schedule: Q01DX001 (ip), vehicle: carboxymethylcellulose (CMC)): 97 % of control
- T/C (dose: 50.0 mg/kg/injection, schedule: Q01DX001 (ip), vehicle: carboxymethylcellulose (CMC)): 101 % of control

Compound: CSc1ncc(C(N)=O)c(N=C(C)C)n1
- T/C (dose: 12.5 mg/kg/injection, schedule: Q04DX003 (ip), vehicle: Klucel (hydroxypropylcellulose) (HPC)): 96 % of control
- T/C (dose: 25.0 mg/kg/injection, schedule: Q04DX003 (ip), vehicle: Klucel (hydroxypropylcellulose) (HPC)): 96 % of control
- T/C (dose: 50.0 mg/kg/injection, schedule: Q04DX003 (ip), vehicle: Klucel (hydroxypropylcellulose) (HPC)): 94 % of control
- T/C [8]: 97 % of control

Compound: CCCCSc1cc(NS(=O)(=O)c2ccccc2)ccc1NS(=O)(=O)c1ccccc1
- T/C [3]: 97 % of control
- T/C [4]: 93 % of control
- T/C [5]: 95 % of control

Compound: COc1ccc(CN2CCCN(Cc3ccc(OC)cc3OC)C2c2ccccc2F)c(OC)c1
- T/C [1]: 96 % of control
- T/C [2]: 96 % of control
- T/C [6]: 89 % of control
- T/C [7]: 94 % of control
